Assays:
Leishmania infantum = experiment: microbe, parasite or virus in culture; format: functional, organism-based; conditions: MHOM/MA/67/ITMAP-263, 48 h
[1] = test system: Trypanosoma brucei brucei; experiment: Antitrypanosomal activity against trypomastigote stage of Trypanosoma brucei brucei AnTat 1.9 assessed as decrease in parasite viability after 69 hrs by Alamar Blue assay; format: functional, organism-based; conditions: AnTat 1.9, 69 h
[2] = Electrochemical behavior of the compound assessed as redox potential corrected toward normal hydrogen electrode at 10^-3 mol/L by cyclic voltammetry; conditions: 1000 µM
HepG2 = experiment: Cytotoxicity against human HepG2 cells assessed as decrease in cell viability after 72 hrs by MTT assay; conditions: hepg2, 72 h

Compound	IC50 (Leishmania infantum) [µM]	IC50 [1] [µM]	Activity [2] [V]	CC50 (HepG2) [µM]
O=[N+]([O-])c1cccc2cccnc12	> 100	17.9	-0.84	> 100
Oc1ccc2ccccc2n1	> 100	> 50	-1.86	> 100
O=[N+]([O-])c1cccc2nc(O)ccc12	> 100	> 50	-0.67	> 100
O=[N+]([O-])c1ccc2nc(O)ccc2c1	> 100	2.3	-0.82	> 100
Cn1c(=O)ccc2ccccc21	> 100	> 50	–	> 100
O=c1cc(Br)c2cccc([N+](=O)[O-])c2[nH]1	20.3	5.5	-0.51	60
CC(=O)Nc1ccccc1[N+](=O)[O-]	> 100	> 50	-0.68	> 100
Cc1ccc2ccc(=O)[nH]c2c1[N+](=O)[O-]	> 100	> 50	-0.71	> 100
COc1nc2c([N+](=O)[O-])cccc2cc1Br	> 6.2	0.4	-0.86	> 6.2
CC(C)(C)OC(=O)NCCOCCOCCNCc1cc(=O)[nH]c2c([N+](=O)[O-])cccc12	> 100	2.5	–	> 100
Nc1ccc2cccnc2c1[N+](=O)[O-]	> 100	> 50	-1.1	> 100
COc1ccc2ccc(=O)[nH]c2c1[N+](=O)[O-]	> 100	> 50	-0.75	> 100
Cc1cc(=O)[nH]c2c([N+](=O)[O-])cccc12	10.2	20.9	-0.53	110
O=c1cnc2cccc([N+](=O)[O-])c2[nH]1	11	7.3	-0.46	125
COc1ccc([N+](=O)[O-])c2[nH]c(=O)ccc12	> 100	> 50	-0.65	> 100
